Earlier results in patent publication US10329321B2, “Site-selective functionalization of proteins using traceless affinity labels” (priority 2016, dated 2019).

Legend:
[1] = imidazole ring of histidine or its fluorinated replacement
[2] = target: nucleotide binding pocket (NBP) in immunoglobulin Fab arms; details: binding affinity dependent on the antibody

| pKa [1] | Kd [2] | SMILES |
| --- | --- | --- |
| ~1.22 | – | Fc1ncc[nH]1 [2-fluoro-imidazole] |
| ~1.76 | – | Fc1c[nH]cn1 [4-fluoro-imidazole] |
| ~6 | – | N[C@@H](Cc1c[nH]cn1)C(=O)O [histidine] |
| – | 1 to 8 µM | O=C(O)CCCc1c[nH]c2ccccc12 [indole-3-butryic acid, 4-(3-indolyl)butyric acid] |
